Results as given in the supplement of paper PMC10307832.

Columns and labels:
Assay in all cases: relative viability (nuclei count vs DMSO), 5 days (fraction); higher = more cells survive
[1] = compound: CCOc1cc2ncc(C#N)c(Nc3ccc(OCc4ccccn4)c(Cl)c3)c2cc1NC(=O)/C=C/CN(C)C [Neratinib] + CS(=O)(=O)N1CCN(Cc2cc3nc(-c4cccc5[nH]ncc45)nc(N4CCOCC4)c3s2)CC1 [Pictilisib] (partner 1 µM)
In short: (§1)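 Lung cancer cell lines in 1536-well plates were dosed by pin tool the day after seeding, either with one drug alone or with a fixed anchor-drug dose plus five library-drug doses (not always all listed) in √10 steps. After 5 days, cells were fixed and their nuclei stained in one step (final 0.05% Triton X-100, 1% formaldehyde, 1 ug/ml Hoechst), then counted on 4× images. Relative viability is the nuclei count in treated wells divided by that in vehicle wells. Values are medians of duplicate plates.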

[2] = compound: CCOc1cc2ncc(C#N)c(Nc3ccc(OCc4ccccn4)c(Cl)c3)c2cc1NC(=O)/C=C/CN(C)C [Neratinib] + Nc1ncn([C@H]2C[C@H](O)[C@@H](CO)O2)c(=O)n1 [Decitabine] (partner 2 µM)
In short: as §1

[3] = compound: CCOc1cc2ncc(C#N)c(Nc3ccc(OCc4ccccn4)c(Cl)c3)c2cc1NC(=O)/C=C/CN(C)C [Neratinib] + C[C@@H](Oc1cc(-c2cnn(C3CCNCC3)c2)cnc1N)c1c(Cl)ccc(F)c1Cl [Crizotinib] (partner 1 µM)
In short: as §1

[4] = compound: CCOc1cc2ncc(C#N)c(Nc3ccc(OCc4ccccn4)c(Cl)c3)c2cc1NC(=O)/C=C/CN(C)C [Neratinib] + Cc1nc(NC(=O)N2CCC[C@H]2C(N)=O)sc1-c1ccnc(C(C)(C)C(F)(F)F)c1 [Alpelisib] (partner 2 µM)
In short: as §1

[5] = compound: CCOc1cc2ncc(C#N)c(Nc3ccc(OCc4ccccn4)c(Cl)c3)c2cc1NC(=O)/C=C/CN(C)C [Neratinib] + N=C(N)NC(=N)NCCc1ccccc1 [Phenformin] (partner 250 µM)
In short: as §1

[6] = compound: CCOc1cc2ncc(C#N)c(Nc3ccc(OCc4ccccn4)c(Cl)c3)c2cc1NC(=O)/C=C/CN(C)C [Neratinib] + CS(=O)(=O)CCNCc1ccc(-c2ccc3ncnc(Nc4ccc(OCc5cccc(F)c5)c(Cl)c4)c3c2)o1 [Lapatinib] (partner 2 µM)
In short: as §1

[7] = compound: CCOc1cc2ncc(C#N)c(Nc3ccc(OCc4ccccn4)c(Cl)c3)c2cc1NC(=O)/C=C/CN(C)C [Neratinib] + O=C(c1cc(Cc2n[nH]c(=O)c3ccccc23)ccc1F)N1CCN(C(=O)C2CC2)CC1 [Olaparib] (partner 8 µM)
In short: as §1

[8] = compound: CCOc1cc2ncc(C#N)c(Nc3ccc(OCc4ccccn4)c(Cl)c3)c2cc1NC(=O)/C=C/CN(C)C [Neratinib] + CC1(C)CCC(c2ccc(Cl)cc2)=C(CN2CCN(c3ccc(C(=O)NS(=O)(=O)c4ccc(N[C@H](CCN5CCOCC5)CSc5ccccc5)c(S(=O)(=O)C(F)(F)F)c4)cc3)CC2)C1 [Navitoclax] (partner 0.5 µM)
In short: as §1

[9] = compound: CCOc1cc2ncc(C#N)c(Nc3ccc(OCc4ccccn4)c(Cl)c3)c2cc1NC(=O)/C=C/CN(C)C [Neratinib] + COc1cc2c(Oc3ccc(NC(=O)C4(C(=O)Nc5ccc(F)cc5)CC4)cc3F)ccnc2cc1OCCCN1CCOCC1 [Foretinib] (partner 0.25 µM)
In short: as §1

[10] = compound: CCOc1cc2ncc(C#N)c(Nc3ccc(OCc4ccccn4)c(Cl)c3)c2cc1NC(=O)/C=C/CN(C)C [Neratinib] + C[C@]1(O)C[C@@H](c2nc(-c3ccc4ccc(-c5ccccc5)nc4c3)c3c(N)nccn32)C1 [Linsitinib] (partner 1 µM)
In short: as §1

[11] = compound: CCOc1cc2ncc(C#N)c(Nc3ccc(OCc4ccccn4)c(Cl)c3)c2cc1NC(=O)/C=C/CN(C)C [Neratinib]
In short: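 Viability was read as treated-well nuclei divided by vehicle-well nuclei, using the median across plates. Lung cancer cell lines in 1536-well plates were kept overnight at 37 °C, pinned with five √10-spaced library-drug doses, and after 5 days were Hoechst-stained, imaged at 4× and counted in MetaXpress. Plates passed only with control CV below 25% and at least one doubling.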

[12] = compound: CCOc1cc2ncc(C#N)c(Nc3ccc(OCc4ccccn4)c(Cl)c3)c2cc1NC(=O)/C=C/CN(C)C [Neratinib] + CC(C)C[C@H](NC(=O)[C@H](Cc1ccccc1)NC(=O)c1cnccn1)B(O)O [Bortezomib] (partner 0.002 µM)
In short: as §1

A549 gave a relative viability ([1]; first compound 0.01 µM) of 0.608, a relative viability ([1]; first compound 0.03162 µM) of 0.409 and a relative viability ([1]; first compound 0.1 µM) of 0.526. For the same cell line, the relative viability ([1]; first compound 0.3162 µM) was 0.323, the relative viability ([1]; first compound 1 µM) was 0.119 and the relative viability ([2]; first compound 0.01 µM) was 0.325. The relative viability ([2]; first compound 0.03162 µM) was 0.295, the relative viability ([2]; first compound 0.3162 µM) was 0.264 and the relative viability ([2]; first compound 1 µM) was 0.318. The relative viability ([3]; first compound 0.01 µM) was 1, the relative viability ([3]; first compound 0.03162 µM) was 0.796 and the relative viability ([3]; first compound 0.1 µM) was 0.713. The relative viability ([3]; first compound 0.3162 µM) was 0.68, the relative viability ([3]; first compound 1 µM) was 0.187 and the relative viability ([4]; first compound 0.01 µM) was 0.79. It also gave a relative viability ([4]; first compound 0.03162 µM) of 0.601, a relative viability ([4]; first compound 0.1 µM) of 0.458 and a relative viability ([4]; first compound 1 µM) of 0.291. The relative viability ([5]; first compound 0.01 µM) was 0.162, the relative viability ([5]; first compound 0.03162 µM) was 0.189 and the relative viability ([5]; first compound 0.3162 µM) was 0.137. The relative viability ([5]; first compound 1 µM) was 0.191, the relative viability ([6]; first compound 0.01 µM) was 1.09 and the relative viability ([6]; first compound 0.03162 µM) was 0.968. The relative viability ([6]; first compound 0.1 µM) was 0.907, the relative viability ([6]; first compound 1 µM) was 0.558 and the relative viability ([7]; first compound 0.01 µM) was 0.356. It also gave a relative viability ([7]; first compound 0.03162 µM) of 0.555, a relative viability ([7]; first compound 0.1 µM) of 0.276 and a relative viability ([7]; first compound 0.3162 µM) of 0.296. The relative viability ([7]; first compound 1 µM) was 0.176, the relative viability ([8]; first compound 0.01 µM) was 1.42 and the relative viability ([8]; first compound 0.03162 µM) was 1.25. For the same cell line, the relative viability ([8]; first compound 0.3162 µM) was 1.12, the relative viability ([8]; first compound 1 µM) was 0.528 and the relative viability ([9]; first compound 0.01 µM) was 0.969. For the same cell line, the relative viability ([9]; first compound 0.03162 µM) was 0.927, the relative viability ([9]; first compound 0.3162 µM) was 0.832 and the relative viability ([9]; first compound 1 µM) was 0.54. It also gave a relative viability ([10]; first compound 0.01 µM) of 0.614, a relative viability ([10]; first compound 0.03162 µM) of 0.547 and a relative viability ([10]; first compound 0.1 µM) of 0.468. The relative viability ([10]; first compound 0.3162 µM) was 0.391, the relative viability ([10]; first compound 1 µM) was 0.365 and the relative viability ([11]; 0.01 µM) was 1.06. The relative viability ([11]; 0.03162 µM) was 1.07, the relative viability ([11]; 0.1 µM) was 0.856 and the relative viability ([11]; 0.3162 µM) was 0.911. It also gave a relative viability ([11]; 1 µM) of 0.516.
With EBC-1 the relative viability ([1]; first compound 0.01 µM) was 0.398, the relative viability ([1]; first compound 0.03162 µM) was 0.408 and the relative viability ([1]; first compound 0.1 µM) was 0.378. For the same cell line, the relative viability ([1]; first compound 0.3162 µM) was 0.319, the relative viability ([1]; first compound 1 µM) was 0.274 and the relative viability ([3]; first compound 0.01 µM) was 0.167. The relative viability ([3]; first compound 0.03162 µM) was 0.204, the relative viability ([3]; first compound 0.1 µM) was 0.175 and the relative viability ([3]; first compound 1 µM) was 0.203. The relative viability ([4]; first compound 0.01 µM) was 0.912, the relative viability ([4]; first compound 0.03162 µM) was 0.958 and the relative viability ([4]; first compound 0.1 µM) was 0.795. It also gave a relative viability ([4]; first compound 0.3162 µM) of 0.754, a relative viability ([4]; first compound 1 µM) of 0.517 and a relative viability ([6]; first compound 0.01 µM) of 0.205. For the same cell line, the relative viability ([6]; first compound 0.03162 µM) was 0.192, the relative viability ([6]; first compound 0.1 µM) was 0.199 and the relative viability ([6]; first compound 0.3162 µM) was 0.233. For the same cell line, the relative viability ([6]; first compound 1 µM) was 0.211, the relative viability ([12]; first compound 0.01 µM) was 0.599 and the relative viability ([12]; first compound 0.03162 µM) was 0.569. The relative viability ([12]; first compound 0.1 µM) was 0.541, the relative viability ([12]; first compound 0.3162 µM) was 0.533 and the relative viability ([12]; first compound 1 µM) was 0.349. The relative viability ([7]; first compound 0.01 µM) was 0.774, the relative viability ([7]; first compound 0.03162 µM) was 0.668 and the relative viability ([7]; first compound 0.1 µM) was 0.669. For the same cell line, the relative viability ([7]; first compound 0.3162 µM) was 0.695, the relative viability ([7]; first compound 1 µM) was 0.544 and the relative viability ([8]; first compound 0.01 µM) was 0.439. For the same cell line, the relative viability ([8]; first compound 0.03162 µM) was 0.408, the relative viability ([8]; first compound 0.1 µM) was 0.41 and the relative viability ([8]; first compound 0.3162 µM) was 0.339. It also gave a relative viability ([8]; first compound 1 µM) of 0.219, a relative viability ([9]; first compound 0.01 µM) of 0.102 and a relative viability ([9]; first compound 0.03162 µM) of 0.0886. It also gave a relative viability ([9]; first compound 0.1 µM) of 0.111, a relative viability ([9]; first compound 0.3162 µM) of 0.113 and a relative viability ([9]; first compound 1 µM) of 0.0982. For the same cell line, the relative viability ([10]; first compound 0.01 µM) was 0.932, the relative viability ([10]; first compound 0.03162 µM) was 1.08 and the relative viability ([10]; first compound 0.1 µM) was 0.842. It also gave a relative viability ([10]; first compound 0.3162 µM) of 0.914, a relative viability ([10]; first compound 1 µM) of 1.04 and a relative viability ([11]; 0.01 µM) of 1.02. For the same cell line, the relative viability ([11]; 0.03162 µM) was 1.12, the relative viability ([11]; 0.1 µM) was 0.872 and the relative viability ([11]; 0.3162 µM) was 0.993. For the same cell line, the relative viability ([11]; 1 µM) was 0.813.
